Results as given in the NIST ThermoML archive (doi:10.1021/je100774p).

Test: mn = molality of the nth substance listed, in mol/kg
Conditions: 101 kPa, Liquid; for viscosity: Capillary tube (Ostwald / Ubbelohde) method

O=C(O)c1cccnc1 [3-carboxylpyridine] + O
Conditions	mass density, 293.15 K [kg/m3]	mass density, 298.15 K [kg/m3]	mass density, 303.15 K [kg/m3]	mass density, 308.15 K [kg/m3]	mass density, 313.15 K [kg/m3]	viscosity, 293.15 K [mPa·s]	viscosity, 298.15 K [mPa·s]	viscosity, 303.15 K [mPa·s]	viscosity, 308.15 K [mPa·s]	viscosity, 313.15 K [mPa·s]
m1 = 0.004283	998.41	997.22	995.82	994.28	992.41	1.004	0.8912	0.7981	0.7201	0.6538
m1 = 0.006512	998.5	997.3	995.95	994.35	992.59	1.005	0.8917	0.7985	0.7205	0.6543
m1 = 0.008188	–	–	–	–	–	1.006	0.8923	0.7989	0.7211	0.6547
m1 = 0.00819	998.57	997.41	996.01	994.4	992.64	–	–	–	–	–
m1 = 0.01628	998.83	997.73	996.31	994.75	992.98	1.007	0.8941	0.8005	0.7224	0.6561
m1 = 0.03262	999.56	998.36	996.97	995.44	993.51	1.011	0.8978	0.8035	0.7254	0.6588
m1 = 0.04903	1000.25	999.09	997.72	996.14	994.22	1.015	0.9012	0.8067	0.7282	0.661
m1 = 0.06555	1000.89	999.71	998.32	996.72	994.91	1.018	0.9039	0.8098	0.7312	0.6639
m1 = 0.0821	1001.66	1000.45	999.03	997.41	995.56	1.022	0.9074	0.8127	0.7338	0.6662
m1 = 0.09871	1002.29	1001.09	999.67	998.05	996.21	1.026	0.9109	0.8158	0.7364	0.6686
m1 = 0.1154	1003.05	1001.8	1000.33	998.71	996.84	1.029	0.9144	0.8192	0.7395	0.6713
m1 = 0.1321	1003.75	1002.51	1001.03	999.39	997.49	1.033	0.9178	0.8225	0.742	0.6742

O [water] + O=C(O)c1cccnc1
m2 = 0
Conditions	viscosity [mPa·s]
293.15 K	1.003
298.15 K	0.8904
303.15 K	0.7973
308.15 K	0.7194
313.15 K	0.653
